Laboratory results reported in article PMC10210398, “Genomic, functional and structural analyses elucidate evolutionary innovation within the sea anemone 8 toxin family” (BMC Biology, 2023).
“Also recorded” adds a separate entry of the source. Bridge positions count the residues as written; N and C are the ends. Ends that are not written are not given here.

Tests used:
mKCa1.1 channel = assay type: cell-based
Procedure: (§1) CHO and human embryonic kidney (HEK 293) cells were grown in DMEM-high glucose supplemented with 10% FBS, 2 mM L-glutamine, 100 U/mL penicillin-g, and 100 μg/mL streptomycin (Invitrogen) at 37 °C in a 5% CO2 and 95% air humidified atmosphere. Cells were passaged twice per week following a 5-min incubation in PBS containing 0.2 g/L EDTA (Invitrogen, Carlsbad, CA).
(§2) CHO cells (ATCC) were transiently transfected with plasmids encoding hKV1.1, hKV1.2, hKV10.1, hKCa3.1, hTRPA1, or hNaV1.7 using Lipofectamine 2000 (Invitrogen, Carlsbad, CA) following the manufacturer’s protocol, then cultured under standard conditions. The cells were co-transfected with a plasmid encoding green fluorescent protein (GFP) at a molar ratio of 10:1 except for hKV1.1, hKV1.2, and hKCa3.1 for which GFP-tagged ion channel vectors were used. Currents were recorded 24–36 h after transfection. […] HEK 293 cells stably expressing the hKv11.1 channel (hERG, hKCNH2 gene, a kind gift from H. Wulff, University of California, Davis, CA) and mKCa1.1 channel (BKCa, hKCNMA1, a kind gift from C. Beeton, Baylor College of Medicine, Houston, TX) were used. hTRPV1 channels were expressed in a stable manner in CHO cells. Transfected cells were washed twice with 2 mL of ECS (see below) and re-plated onto 35-mm polystyrene cell culture dishes (Cellstar, Greiner Bio-One). hKV1.3 currents were recorded from activated peripheral blood mononuclear cells (PBMCs, see below) 3–4 days after activation. Human veinous blood was obtained from anonymised healthy donors. […]
(§3) Conventional whole-cell patch-clamp electrophysiology was used to record ionic currents. […] Data were analysed using Prism 8 (GraphPad, CA, USA) and ClampFit 10.5 software (Molecular Devices Inc., Sunnyvale, CA). […] For hKCa3.1, hTRPA1 and hTRPV1, the reversal potential for K^+ was determined and only those currents were analysed for which the reversal potential fell into the range of the theoretical reversal potential ± 5 mV (− 86.5 ± 5 mV for KCa3.1, and 0 ± 5 mV for hTRPA1 and hTRPV1).

hKCa3.1 = experiment: Whole-cell patch-clamp, hKCa3.1 in transiently transfected CHO cells; assay type: cell-based, human
Procedure: as §1
(§4) CHO cells (ATCC) were transiently transfected with plasmids encoding hKV1.1, hKV1.2, hKV10.1, hKCa3.1, hTRPA1, or hNaV1.7 using Lipofectamine 2000 (Invitrogen, Carlsbad, CA) following the manufacturer’s protocol, then cultured under standard conditions. The cells were co-transfected with a plasmid encoding green fluorescent protein (GFP) at a molar ratio of 10:1 except for hKV1.1, hKV1.2, and hKCa3.1 for which GFP-tagged ion channel vectors were used. Currents were recorded 24–36 h after transfection. […] Transfected cells were washed twice with 2 mL of ECS (see below) and re-plated onto 35-mm polystyrene cell culture dishes (Cellstar, Greiner Bio-One). hKV1.3 currents were recorded from activated peripheral blood mononuclear cells (PBMCs, see below) 3–4 days after activation. […]
(§5) Conventional whole-cell patch-clamp electrophysiology was used to record ionic currents. […] Data were analysed using Prism 8 (GraphPad, CA, USA) and ClampFit 10.5 software (Molecular Devices Inc., Sunnyvale, CA). […]

Drosophila melanogaster = experiment: Injection activity assay in Drosophila melanogaster; assay type: in vivo; settings: for flies dead / flies paralysed: n = 8; for number of flies dead / number of flies paralysed: of 8 flies
Procedure: The activity of the recombinant SA8 peptide in Drosophila melanogaster was assessed using an injection activity assay. The mass of female D. melanogaster used for this experiment ranged from 0.8 to 1.1 mg. Eight D. melanogaster were used as an injection control group and administered 50 nL of water. Five doses of SA8 (0.00005, 0.0005, 0.005, 0.05 and 0.5 µg per fly; 50 nL) were each administered to eight D. melanogaster (n total = 40), with observations of paralysis and mortality made at 2 and 24 h post-injection (Additional file 14: File S6). Dose–response data were analysed as described previously.

hNaV1.7 = experiment: Whole-cell patch-clamp, hNaV1.7 in transiently transfected CHO cells; assay type: cell-based, human
Procedure: as §1, §4, §5

[1] = tested on: hKV11.1 channel (hERG, hKCNH2 gene); experiment: Whole-cell patch-clamp, hKV11.1 (hERG) stably expressed in HEK 293 cells; assay type: cell-based, human
Procedure: as §1, §4, §5

hKV10.1 = experiment: Whole-cell patch-clamp, hKV10.1 in transiently transfected CHO cells; assay type: cell-based, human
Procedure: as §1, §2, §3

Sequence: GYGKGRPGCYNHYDESICGGVIKDEHCKAGRGSRMGKFALKNCQFQCGLC (disulfide 9-47, 18-50, 27-43) [SA8]
- RCF_mean (remaining current fraction, I/I0) (mKCa1.1 channel; KCa1.1, 100 nM SA8, mean, n = 4, SEM 0.0158455): 1.052
- effect on current, in words (mKCa1.1 channel; mKCa1.1, HEK 293, 100 nM SA8): no effect; also recorded: did not inhibit
- RCF_mean (remaining current fraction, I/I0) (hKCa3.1; KCa3.1, 100 nM SA8, mean, n = 6, SEM 0.0170688): 0.9712
- effect on current, in words (hKCa3.1; hKCa3.1, CHO cells, 100 nM SA8): no effect; also recorded: did not inhibit
- flies dead (Drosophila melanogaster; 5e-5 µg/fly, 2 h): 0.0%
- flies paralysed (Drosophila melanogaster; 5e-5 µg/fly, 2 h): 0.0%
- number of flies dead (Drosophila melanogaster; 5e-5 µg/fly, 2 h): 0
- number of flies paralysed (Drosophila melanogaster; 5e-5 µg/fly, 2 h): 0
- flies dead (Drosophila melanogaster; 5e-5 µg/fly, 24 h): 0.0%
- flies paralysed (Drosophila melanogaster; 5e-5 µg/fly, 24 h): 0.0%
- number of flies dead (Drosophila melanogaster; 5e-5 µg/fly, 24 h): 0
- number of flies paralysed (Drosophila melanogaster; 5e-5 µg/fly, 24 h): 0
- flies dead (Drosophila melanogaster; 0.0005 µg/fly, 2 h): 0.0%
- flies paralysed (Drosophila melanogaster; 0.0005 µg/fly, 2 h): 0.0%
- number of flies dead (Drosophila melanogaster; 0.0005 µg/fly, 2 h): 0
- number of flies paralysed (Drosophila melanogaster; 0.0005 µg/fly, 2 h): 0
- flies dead (Drosophila melanogaster; 0.0005 µg/fly, 24 h): 0.0%
- flies paralysed (Drosophila melanogaster; 0.0005 µg/fly, 24 h): 0.0%
- number of flies dead (Drosophila melanogaster; 0.0005 µg/fly, 24 h): 0
- number of flies paralysed (Drosophila melanogaster; 0.0005 µg/fly, 24 h): 0
- flies dead (Drosophila melanogaster; 0.005 µg/fly, 2 h): 0.0%
- flies paralysed (Drosophila melanogaster; 0.005 µg/fly, 2 h): 0.0%
- number of flies dead (Drosophila melanogaster; 0.005 µg/fly, 2 h): 0
- number of flies paralysed (Drosophila melanogaster; 0.005 µg/fly, 2 h): 0
- flies dead (Drosophila melanogaster; 0.005 µg/fly, 24 h): 0.0%
- flies paralysed (Drosophila melanogaster; 0.005 µg/fly, 24 h): 0.0%
- number of flies dead (Drosophila melanogaster; 0.005 µg/fly, 24 h): 0
- number of flies paralysed (Drosophila melanogaster; 0.005 µg/fly, 24 h): 0
- flies dead (Drosophila melanogaster; 0.05 µg/fly, 2 h): 0.0%
- flies paralysed (Drosophila melanogaster; 0.05 µg/fly, 2 h): 0.0%
- number of flies dead (Drosophila melanogaster; 0.05 µg/fly, 2 h): 0
- number of flies paralysed (Drosophila melanogaster; 0.05 µg/fly, 2 h): 0
- flies dead (Drosophila melanogaster; 0.05 µg/fly, 24 h): 0.0%
- flies paralysed (Drosophila melanogaster; 0.05 µg/fly, 24 h): 0.0%
- number of flies dead (Drosophila melanogaster; 0.05 µg/fly, 24 h): 0
- number of flies paralysed (Drosophila melanogaster; 0.05 µg/fly, 24 h): 0
- paralysis or death within 24 h, in words (Drosophila melanogaster; 0.5 µg per fly, injected): did not result in paralysis or death
- flies dead (Drosophila melanogaster; 0.5 µg/fly, 2 h): 0.0%
- flies paralysed (Drosophila melanogaster; 0.5 µg/fly, 2 h): 0.0%
- number of flies dead (Drosophila melanogaster; 0.5 µg/fly, 2 h): 0
- number of flies paralysed (Drosophila melanogaster; 0.5 µg/fly, 2 h): 0
- flies dead (Drosophila melanogaster; 0.5 µg/fly, 24 h): 0.0%
- flies paralysed (Drosophila melanogaster; 0.5 µg/fly, 24 h): 0.0%
- number of flies dead (Drosophila melanogaster; 0.5 µg/fly, 24 h): 0
- number of flies paralysed (Drosophila melanogaster; 0.5 µg/fly, 24 h): 0
- RCF_mean (remaining current fraction, I/I0) (hNaV1.7; Nav1.7, 1000 nM SA8, mean, n = 5, SEM 0.022988): 1.02
- effect on current, in words (hNaV1.7; hNaV1.7, CHO cells, 1 µM SA8): no effect; also recorded: did not inhibit
- RCF_mean (remaining current fraction, I/I0) ([1]; Kv11.1, 100 nM SA8, mean, n = 5, SEM 0.0157239): 1.029
- effect on current, in words ([1]; hKV11.1 (hERG), HEK 293, 100 nM SA8): no effect; also recorded: did not inhibit
- RCF_mean (remaining current fraction, I/I0) (hKV10.1; Kv10.1, 1000 nM SA8, mean, n = 4, SEM 0.00577385): 0.9796
- effect on current, in words (hKV10.1; hKV10.1, CHO cells, 1 µM SA8): no effect; also recorded: did not inhibit
